Reference: patent publication EP0482717A1, “Use of a benzo[b]thiophene-2-carboximidamide derivative against heart failure” (Akzo Nobel N.V., priority 1990, dated 1992)
Marks after values point to notes of the source that are not given here.

How the values were obtained:
Assay type in all cases: in vivo
anaesthetized cat = test: Left ventricular contractility (LV dP/dt) after oral administration (by gavage) to anaesthetized cats; details: for potency at increasing left ventricular contractility (LV dP/dt): administered orally (by gavage), compounds I and II compared, species not given
From the text: However, it also appeared that this improvement with regard to compound II could be fully attributed to its reduced bioavailability. […] Poor activity was also observed after oral administration (by gavage) of the compound to anaesthetized cats. Substitution with C1 at the 4- position in the benzothiophene nucleus, thus reduces oral activity.
(§1) The pharmacological results after oral administration of compounds I (this invention) vs. compounds II and III (EP 158,380), are depicted in table I (cat) and table II (dog).

conscious dog = test: Left ventricular contractility (LV dP/dt), emesis and restlessness after oral administration to conscious dogs
From the text: (§2) Related compounds with positive inotropic activity have been disclosed in European patent 158,380.
as §1

[1] = Plasma drug levels in multiple dose studies in rats; details: compared with an equivalent dose of compound II
volunteers = test: Clinical Phase I studies, oral administration to volunteers
From the text: as §2

[2] = oral administration, conscious dog, dose 25 mg/kg

SMILES: COc1cc2sc(C(N)=NO)cc2c(Cl)c1OC [III]
- activity after oral administration (by gavage) (anaesthetized cat; anaesthetized cats): Poor activity
- increases of left ventricular contractility (LV dP/dt) (conscious dog; conscious dogs, oral administration, doses up to and including 50 mg/kg): Only modest increases
- emesis and vomiting (conscious dog; dose not stated): did not cause emesis and vomiting
- restlessness (conscious dog; dose not stated): restlessness was still observed
- emesis (conscious dog; [2]): 0
- increase in LV dP/dt (%) (conscious dog; [2]): 10%

SMILES: COc1cc2sc(C(=N)NO)cc2c(F)c1OC [Compound I, 4-fluoro-N-hydroxy-5,6-dimethoxybenzo[b]thiophene-2-carboximidamide]
- potency at increasing left ventricular contractility (LV dP/dt) (anaesthetized cat): approximately equipotent
- emetic effect compared with compound II (conscious dog; oral administration to conscious dogs): less emetic than compound II
- emesis (conscious dog; [2]): 0
- increase in LV dP/dt (%) (conscious dog; [2]): 45%
- restlessness (conscious dog; [2]): 0
- increases in LV dP/dt (conscious dog; oral dose 25 mg/kg): marked increases
- vomiting (conscious dog; oral dose 25 mg/kg): no significant vomiting
- plasma drug levels [1]: higher

SMILES: COc1cc2cc(C(N)=NO)sc2cc1OC [II]
- potency at increasing left ventricular contractility (LV dP/dt) (anaesthetized cat): approximately equipotent
- doses at which the compound consistently produces vomiting and restlessness (conscious dog; administered orally to conscious restrained dogs): > 10 mg/kg
- increase in LV dP/dt (%) (conscious dog; [2]): 50-100* %
- nausea and vomiting (volunteers): nausea and vomiting were also observed
